# Source: EP2605769B1, “BENZOQUINONE DERIVATIVES FOR THE TREATMENT OF MITCHONDRIAL EYE DISEASES” (Santhera Pharmaceuticals (Schweiz) AG, priority 2010, dated 2012)
# “And” between values parts separate entries of the source, which are not always exact repeats. Equal entries are not always repeated.
# Columns and labels:
# RGC-5 cells = test: Cellular viability of RGC-like cells challenged with rotenone (cellular ATP content); type: cell-based
# Source text: Mitochondrial impairment directly influences cellular survival. Especially cells and tissues that display high level of energy consumption, such as neurons are especially vulnerable. Consequently, these cells and tissues are likely to be the most responsive to a strategy that targets mitochondrial function. We addressed this possibility by assessing the viability of the retinal ganglion cell line RGC-5, challenged with the mitochondrial complex I inhibitor rotenone, in the absence or presence of compounds.
# Experimental procedure: RGC-5 cells were cultured under ambient conditions (37 °C, 5% CO2, 90% humidity) in DMEM (1g/l glucose; 10% fetal bovine serum (FBS), Penicillin-Streptomycin-Glutamine (PSG)). RGC-5 cells will be seeded in DMEM (1g/l glucose; 2% FBS) into BD Falcon™ cell culture plates. Before rotenone- induced complex I inhibition, the cells were pre-treated with Compound IA or vehicle. For Compound IA co-treatment with rotenone, new compound was added together with rotenone-containing cell culture media. After the rotenone exposure, the media was exchanged and replaced by Hanks' BSS for the 1 day post-incubation. The post-treatment media contained Compound IA or vehicle only. As measure of cell viability, cellular ATP content was analyzed using luminescence from ATP-dependent enzymatic oxidation of luciferin by luciferase. RGC-5 cells were be washed with PBS and lysed in lysis buffer (4 mM EDTA, 0.2% Triton X-100) at room temperature. In 96-well plates, ATP measurement buffer (25 mM HEPES pH 7.25, 300 µM D-luciferin, 5 µg/ml firefly luciferase, 75 µM DTT, 6.25 mM MgCl2, 625 µM EDTA and 1 mg/ml BSA) was combined with lysate to start the reaction. Luminescence was quantified immediately using a multimode plate reader (Tecan M1000, Tecan iControl 1.6 software; Tecan Austria GmbH, Grödig, Austria). Effects on cell viability were defined as the percentage of compound-mediated change in cell viability relative to rotenone-induced reduction in cell viability. Data are presented as mean ± SEM. Paired Student's t-test was used to compare non-normalized data. Statistical significance was set at p≤0.05(*), p≤0.01(**) and p≤0.001(***).
# [1] = Literature plasma and brain levels after oral dosing (Torii et al., Nagai et al.); type: in vivo; conditions: rats, oral 10 mg/kg
# Method: Beyond the high first-pass effect, a further drawback of compounds of formula (I), and again exemplified with compound IA as a representative for this compound class, is the fact, that these compounds are reaching the brain only in very limited amounts when given orally. For example, it is known from the literature (Torii H, Yoshida K, Kobayashi T, Tsukamoto T, Tanayama S. J Pharmacobiodyn. 1985 Jun;8(6):457-67) that an oral dose of 10 mg/kg of idebenone (compound IA) in rats leads to plasma levels of approximately 1000 ng/ml of total idebenone as measured by radioactivity after oral dosing of radioactive labeled compound IA. The total concentration means idebenone including its metabolites. […] The corresponding levels in the brain are 10 ng/ml of total idebenone (which again means including the metabolites), resulting in only 0.03 ng/ml for parent idebenone itself. As a result, the ratio of brain vs plasma levels is about 1%. This is in line with the findings of Nagai et al (Nagai Y, Yoshida K, Narumi S, Tanayama S, Nagaoka A. Brain distribution of idebenone and its effect on local cerebral glucose utilization in rats. Arch Gerontol Geriatr. 1989;8(3):257-72), where higher oral doses of idebenone (100 mg/kg) are leading to similar low brain- to-plasma ratio of 1-2% in rats.
# [2] = test system: Immortalized lymphoblastoid cells (BC1 LCL); test: ATP assay (ATP dependent luciferase reaction, low glucose); type: cell-based; conditions: 10 µM, 72 h
# Source text: Electrons donated from the citric acid cycle in form of NADH are transferred between complexes I, II and III of the respiratory chain. In this process mitochondrial membrane potential is generated through proton pumps in the mitochondrial inner membrane. This electrochemical gradient across the inner mitochondrial membrane is used in healthy cells to provide the energy to drive mitochondrial ATP production. Consequently, cellular ATP levels are a good indicator of mitochondrial function. […] A potential inhibition of mitochondrial respiration can be detected through special growth conditions in vitro. […]
# Experimental Procedure: This assay was therefore performed in the absence of glucose in the medium. […] The number of cells was counted and after brief washing in PBS and collecting through centrifugation (5 min; 200 x g) the cells were lysed in a volume of 0.5 ml lysis solution (4 mM EDTA, 0.2% Triton X-100) for 15 min.on ice and 10 µl of lysate was added into a white 96 well plate. […] The reaction was started by addition of 100 µl reaction mix (300 µM D-Luciferin, 5 µg/ml firefly luciferase, 75 µM DTT, 25 mM HEPES, 6.25 mM MgCl2, 625 µM EDTA and 1 mg/ml BSA) and the luminescence signal was quantified in a multimode plate reader (Tecan M1000 plate reader; luminescence integration time: 100 ms). […]
# [3] = correction factor calculated from Torii et al
Compound,"cell viability, compound-mediated change relative to rotenone-induced reduction, mean (RGC-5 cells; 1 day-preincubation, 100 nM)","cell viability, compound-mediated change relative to rotenone-induced reduction, mean (Fig. 2) (RGC-5 cells; 1 day-preincubation, 1 µM)","cell viability, compound-mediated change relative to rotenone-induced reduction, mean (RGC-5 cells; 2 day-preincubation, 1 nM)","cell viability, compound-mediated change relative to rotenone-induced reduction, mean (RGC-5 cells; 2 day-preincubation, 10 nM)","cell viability, compound-mediated change relative to rotenone-induced reduction, mean (RGC-5 cells; 2 day-preincubation, 100 nM)","cell viability, compound-mediated change relative to rotenone-induced reduction, mean (RGC-5 cells; 2 day-preincubation, 1000 nM)","concentrations at which viability of RGC-5 cells was significantly rescued (RGC-5 cells; rotenone challenge, dose dependent)","Kp ([1]; rat, brain / plasma, read-out: ratio of brain vs plasma levels)","idebenone plasma levels (unmetabolized parent) [1, 3]","levels in the brain of parent idebenone [1, 3]",ATP levels [2]
"COC1=C(OC)C(=O)C(CCCCCCCCCCO)=C(C)C1=O [Compound IA, Idebenone]",12.6%,highly significant,1.0%,7% and 7.3%,35% and 34.9%,58% and 58.4%,≥ 10 nM,~0.01,3 ng/mL,0.03 ng/mL,
COC1=C(OC)C(=O)C(CCCCCCCCCC(C)(C)O)=C(C)C1=O [Compound IC],,,,,,,,,,,63%
"CCCCCCCCCCCC1=C(O)C(=O)C=C(O)C1=O [Compound IE, Embelin]",,,,,,,,,,,95%
